Results on five molecules are retold here after article PMC7687371, “Quantitative in Vitro to in Vivo Extrapolation (QIVIVE) for Predicting Reduced Anogenital Distance Produced by Anti-Androgenic Pesticides in a Rodent Model for Male Reproductive Disorders” (Environmental Health Perspectives, 2020).

Like-named read-outs stand apart in the source and are kept apart here. Marks after values point to notes of the source that are not given here. Some results are limits rather than exact numbers.

For one series, the system named is NCI-H295R cells. The series can be described thus: H295R steroidogenesis assay. The series is classed as cell-based, human. The note with it: for Effect on androgen (steroid) synthesis, in words: H295R steroidogenesis assay; for IC20: read-out: Testosterone inhibition (IC20 µM); for IC50: 48 h, read-out: Testosterone inhibition (IC50, μM). On the procedure:
To capture effects on steroid hormone synthesis (testosterone and androstendione), we tested all 12 pesticides in the H295R assay with the human adrenocortical carcinoma cell line NCI-H295R (American Type Culture Collection no. CRL-2,128, LGC Standards), as previously described ([Hecker et al. 2011]; [Rosenmai et al. 2013]). In brief, cells were cultured in DMEM/F-12 +glutamine medium with HEPES buffer (Invitrogen) containing 1% insulin-transferrin-sodium selenite plus Premix (VWR) and 2.5% Nu-Serum (BD Bioscience) at 37°C in a 5% CO2 atmosphere. The day before exposure, cells were seeded 300,000 per well in clear 24-well plates (VWR Corning). Cells were exposed for 48 h to control (Forskolin: 1μM , 10μM (Sigma-Aldrich); and Prochloraz: 0.3μM , 3μM (VWR-Bie and Berntsen) or test compounds. The vehicle (DMSO) concentration was kept constant in all wells (0.1%). After 48 h, the exposure culture medium was removed and stored at –80°C until the levels of 10 steroid hormones (testosterone, androstenedione, aldosterone, corticosterone, cortisol, dehydroepiandrosterone, 17α-hydroxyprogesterone , progesterone, estrone, and 17β-estradiol ) were quantified using the high-performance liquid chromatography–tandem mass spectrometry method described elsewhere ([Mortensen and Pedersen 2007]). Minor modifications were made to accommodate a smaller sample size and to include more hormones. The liquid chromatography system (Agilent 1100) was equipped with an Atlantis C18 column ( 2.1×150mm , 3μm ) (Waters Corp.) maintained at 40°C. The sample injection volume was 50μL . […] The mass spectrometer was a Quattro Ultima triple quadrupole instrument (Waters Corp.). […] Each pesticide was tested in 2-fold serial dilutions at concentrations between 0.8 and 50μM in three independent experiments, and hormone levels were normalized to the solvent controls containing 0.1% DMSO. Cell viability was evaluated by using the 3-(4,5-dimethylthiazol-2-yl)-2,5- diphenyltetrazolium bromide (MTT) assay (Sigma) as previously described ([Hecker et al. 2011]; [Rosenmai et al. 2013]). Fluorescence was measured (excitation 560 nm , emission 590 nm ) using a Wallac Victor2 1420 multilabel counter (PerkinElmer).

The nature of series [1]: PBK model first-order kinetic parameters fitted to in vivo ADME data. Also on record: species or system rat. The note with it: for Metabolism rate in liver, Total (L/h) KMetab: metabolic clearance.
Details of series [2]: method as in U.S. EPA 2012. The note with it: EPI Suite, experimental preferred over modeled; ref U.S. EPA 2012; cited from earlier work.
The conditions of series [3]: cited from earlier work.
The test system of the next series is pregnant dams and pups. The note with it: cited from earlier work; for Critical toxicity / LOAEL (mg/kg bw) / NOAEL (mg/kg bw): ref EFSA's Draft Assessment Reports (DARs).
Series [4] in a line: Fetal chemical exposure analysis (LC-QTOF) at GD21. The series is classed as in vivo, rat. The note with it: male, Wistar, rat, in vivo, 60 mg/kg/day. On the procedure:
Dams were decapitated under CO2 /oxygen anesthesia at GD21 and fetuses collected by cesarean section. Prior to decapitation of the fetuses, their BWs and AGDs were recorded. Blood from the dams was collected in heparinized vacutainer tubes, centrifuged at 125×g for 10 min at 4°C to prepare plasma, and, together with the amniotic fluid, frozen directly. Pooled trunk blood from all female and male fetuses of the same litter (female and male blood separately) was collected into heparin-treated capillary tubes approximately 90 min after dosing and the plasma was prepared and stored at −80°C until analysis for pesticides and selected metabolites by liquid chromatography quadrupole time-of-flight mass spectroscopy (LC-QTOF). Details about the LC-QTOF analyses are provided in “Method S1” in Supplemental Material. Amniotic fluid was collected from fetuses by pipetting, pooled within each litter, snap frozen in liquid nitrogen, and subsequently stored at −80 °C .
Method S1. Chemical analysis of pesticide levels
Acetonitrile, methanol, formic acid and 25% ammonium hydroxide, all of LC-MS grade and ethyl acetate were obtained from Sigma Aldrich, Schneldorf, Germany. Isolute bulk C-18 sorbent was obtained from Biotage, Sweden and was washed with acetonitrile and ethyl acetate and dried prior to use. Water was purified on a Milli Q system, Millipore Corporation, US.
Pesticide standards were purchased from Dr. Ehrenstorfer (Augsburg, Germany), LGC-standards (Teddington, Middlesex, UK) and Sigma Aldrich (St. Louis, MO, USA). Acetonitrile used as solvents for the LC-QTOF was LiChrosolv Hypergrade. An ESI-L low concentration tuning mix from Agilent (Santa Clara, CA, USA) was used for tuning of the TOF. A reference solution was prepared containing Purine and HP0921 from Agilent (Santa Clara, CA, USA).
Stock solutions of the pesticides were prepared at 1 mg/ml in acetonitrile, methanol or toluene.
Standard mixtures containing the test compounds were prepared at a concentration of 10 µg/ml acetonitrile and used for preparation of calibration solutions. Isomers eluting very close to each other were avoided in these mixtures. […]
added 200 µl of ice-cold acetonitrile in Eppendorf tubes. Internal standard was added in the form of 10 µl TPP (5 µg/ml) and the extraction was performed by whirl mixing. The tube was then stored on ice for 5 min and then centrifuged at 10,000 x g for 10 min at 4 °C (Ole Dich Instrument, Denmark). An aliquot of the supernatant was transferred to filter vials (0.45 µm) and analysed by […]
Quality control samples were included in each analytical run. These were prepared using the same procedure as for the samples, though using amniotic fluid from untreated control Wistar rats extracted with acetonitrile containing three different levels of the relevant pesticide standards. The resulting spike levels were 0.04, 0.013 and 0.13 µg/ml. […]
fluid or plasma from Sprague Dawley rats was transferred to an Eppendorf vial and added 150 µl of acetonitrile. 50 mg of isolute C-18 sorbent was added to the tube, which was shaken for 5 min, […]
cooled to 4 °C and centrifuged at 10,000 x g for 10 min at 4 °C (Ole Dich Instrument makers, Denmark). 20 µl of the supernatant was transferred to an HPLC vial and mixed with 80 µl of 5%- 75% acetonitrile (this percentage was analyte dependent) prior to analysis by LC-MS.LC -QTOF […]
Pesticide screening was carried out using a liquid chromatography-electrospray ionization-quadrupole-time of flight-mass spectrometer.
The LC system was connected to a Bruker Daltonics, maXis qTOF mass spectrometer equipped with an electrospray ion source operated in positive ion mode (Bruker Daltonics, Bremen, Germany). The ion source settings were: nebulizer pressure 2 bars, drying gas flow 8 l/min, dry gas temperature 200 °C, capillary voltage 2500 V. The scan range was from 80 to 700 m/z with an acquisition rate of 2 Hz. Sodium formate dissolved in 50% 2-propanol was introduced in the ion […]

Series [5] relates to Wistar rats. The note with it: rat, in vivo.
In series [6] the test system is Wistar rats. Kind of series: In vivo Study 3 (fludioxonil, cyprodinil, dimethomorph), reproductive/developmental toxicity, AGD.

In general, IC20 refers to the concentration at which the effect reaches the 20% level. As for `CC1(C(=O)Nc2ccc(O)c(Cl)c2Cl)CCCCC1` [Fenhexamide, fenhexamid], the “Effect on androgen (steroid) synthesis, in words” value (“Effect on androgen” below) in the series on NCI-H295R cells is reported as “inhibited testosterone synthesis”. In the series on NCI-H295R cells (Homo sapiens, NCI-H295R), the IC20 stood at 5.2 µM. Also, in the series with NCI-H295R cells (multiple contrast tests), the “Androstendione, LOEC” value came to 12.5 µM; the “Corticosterone, LOEC” value is listed as 3.1 µM; the “Cortisol, LOEC” value turned out to be 3.1 µM; the “DHEA, LOEC” value was 12.5 µM. Moreover, in the series with NCI-H295R cells (multiple contrast tests), the “Estradiol, LOEC” value stood at 12.5 µM; the “OH-Progesterone, LOEC” value is listed as 25 µM; the “Progesterone, LOEC” value was determined as 12.5 µM; the “Testosterone, lowest observed effect concentration (LOEC)” value (shortened to “Testosterone … (LOEC)”) came out at 6.3 µM. In series [1] (PBK model parameter), the “Fecal excretion rate from gut (L/h) KFeces” value (shortened to “Fecal excretion rate from gut”) is given as 3 L/h; the “Portal GI absorption rate into liver (L/h) KAS” value came out at 1 L/h; the “Urine excretion rate from kidney (L/h) KUrine” value (shortened to “Urine excretion rate”) was 0.05 L/h; the “Metabolism rate in liver, Total (L/h) KMetab” value (“Metabolism rate … (L/h) KMetab” below) stood at 0.15 L/h. The “log Kow” value in series [2] is given as 3.51. In addition, in series [3] (plasma), the “Unbound plasma fraction (%)” value is listed as 5.7^g %. Besides, in the series with pregnant dams and pups, the Critical toxicity entry was “Reduced maternal body and organ weight”; the “LOAEL (mg/kg bw)” value is 450 mg/kg bw; the “NOAEL (mg/kg bw)” value is 45 mg/kg bw.
As for `CC1(C)[C@H](C(=O)O[C@H](C#N)c2cccc(Oc3ccccc3)c2)[C@@H]1/C=C(\Cl)C(F)(F)F` (racemic) [λ-Cyhalothrin, λ-cyhalothrin], the “Effect on androgen” value in the series with NCI-H295R cells is on record as “no effect on any measured androgen”. The IC20 in the series with NCI-H295R cells (Homo sapiens, NCI-H295R) was > 50 µM. In the series with NCI-H295R cells (multiple contrast tests), the “Corticosterone, LOEC” value is 3.1 µM and the “Cortisol, LOEC” value is on record as 3.1 µM. For the same molecule, in series [1] (PBK model parameter), the “Fecal excretion rate from gut” value stood at 4 L/h; the “Portal GI absorption rate into liver (L/h) KAS” value is 1 L/h; the “Urine excretion rate” value came out at 0.05 L/h; the “Metabolism rate … (L/h) KMetab” value was found to be 0.3 L/h. For the same molecule, the “log Kow” value in series [2] is on record as 6.80. In addition, the Critical toxicity result with pregnant dams and pups is “Reduced maternal and pup BW”.
By IC50 is commonly meant the midpoint of a concentration-inhibition curve. On to `NC(=O)Nc1ccc(Cl)c(Cl)c1` [DPU, 1-(3,4-Dichlorophenyl)urea], for which the IC50 in the series on NCI-H295R cells (Homo sapiens, NCI-H295R) is 5 µM. Further, the “Urine excretion rate” value in series [1] (PBK model parameter) stood at 0.05 L/h. Also, the “Metabolism rate in liver, Metabolite” value in series [1] (conversion of parent compound into active metabolite) is 0.25 L/h. For the same molecule, the “log Kow” value in series [2] is 2.00.
For the molecule `Oc1ccccc1-c1ccccc1` [o -Phenylphenol, o -phenylphenol], in the series with NCI-H295R cells, the “Effect on androgen” value is on record as “inhibited testosterone synthesis”. For the same molecule, the IC20 with NCI-H295R cells (NCI-H295R cells) is 25 µM. In addition, in the series with NCI-H295R cells (multiple contrast tests), the “Estradiol, LOEC” value came out at 25 µM and the “Testosterone … (LOEC)” value is on record as 50 µM. Besides, in series [1] (PBK model parameter), the “Fecal excretion rate from gut” value is listed as 0.1 L/h; the “Portal GI absorption rate into liver (L/h) KAS” value was 1 L/h; the “Urine excretion rate” value came to 0.01 L/h; the “Metabolism rate … (L/h) KMetab” value amounted to 0.2 L/h. For the same molecule, the “log Kow” value in series [2] is 3.09. For the same molecule, the “Unbound plasma fraction (%)” value in series [3] (ref Wetmore et al. (2012)) was 4.1^g %. Also, in the series on pregnant dams and pups, the Critical toxicity entry was “Maternal BW gain, bladder & kidney effect”; the “LOAEL (mg/kg bw)” value is 140 mg/kg bw; the “NOAEL (mg/kg bw)” value is given as 40 mg/kg bw.
On to `Cc1cc(C2CC2)nc(Nc2ccccc2)n1` [Cyprodinil, cyprodinil], for which the “Effect on androgen” value in the series on NCI-H295R cells is on record as “inhibited testosterone synthesis”. Also, in the series on NCI-H295R cells (Homo sapiens, NCI-H295R), the IC50 turned out to be 8.5 µM and the IC20 came out at 0.4 µM. In the series on NCI-H295R cells (multiple contrast tests), the “Androstendione, LOEC” value stood at 6.3 µM; the “Corticosterone, LOEC” value came to 25 µM; the “Cortisol, LOEC” value was found to be 25 µM; the “Estradiol, LOEC” value came to 6.3 µM. For the same molecule, the “Testosterone … (LOEC)” value in the series on NCI-H295R cells (multiple contrast tests) came out at 6.3 µM. Besides, in series [1] (PBK model parameter), the “Biliary excretion rate (L/h) KBiliary” value turned out to be 1.6 L/h, the “Fecal excretion rate from gut” value is 1 L/h, the “Portal GI absorption rate into liver (L/h) KAS” value stood at 1 L/h and the “Urine excretion rate” value was found to be 0.2 L/h. In addition, the “Metabolism rate … (L/h) KMetab” value in series [1] (PBK model parameter) worked out at 0.01 L/h. Also, the “Measured concentration in male fetuses” value in series [4] is 6.6 µM. In the series with Wistar rats [5] (male, Wistar (HanTac:WH)), the “Shortening of AGDI compared with male controls (normalized AGDI scale)” value is recorded as “around 10%”. Moreover, the AGDI mean in the series on Wistar rats [5] (male, Wistar, 20 mg/kg) is 2.13. Moreover, the AGDI mean with Wistar rats [5] (male, Wistar, 60 mg/kg) was determined as 1.98. In addition, the “AGDI reduction (%)” value with Wistar rats [5] (male, Wistar, 60 mg/kg/day) came out at 16%. For the same molecule, the AGDI mean in the series with Wistar rats [5] (male, Wistar, 180 mg/kg) was determined as 2.09. In addition, in the series on Wistar rats [5], the “Nipple retention at PD14, statistics in words” value was “no statistically significant effects on nipple retention”. For the same molecule, the “log Kow” value in series [2] was 4.00. The Maternal liver toxicity entry in the series with pregnant dams and pups (180 mg/kg per day, ref EFSA 2005) is “induce maternal liver toxicity”. In addition, in the series on pregnant dams and pups, the Critical toxicity result is “Reduced maternal and pup BW”; the “NOAEL (mg/kg bw)” value is on record as 71 mg/kg bw. In addition, the “% postnatal deaths” value in the series with Wistar rats [6] (20 mg/kg bw/day) came to 1.2 ± 3.7%. Also, the “% postnatal deaths” value in the series on Wistar rats [6] (60 mg/kg bw/day) worked out at 0.0 ± 0.0%. For the same molecule, the “% postnatal deaths” value in the series with Wistar rats [6] (180 mg/kg bw/day) was determined as 0.0 ± 0.0%.
